From US12594257B2, “Means and methods for improving anti-tumoral efficacy of transmembrane channel protein blockers” (ARDAN PHARMA S.A.S., priority 2021, dated 2026)
Entries after “also recorded” stand apart in the source; their conditions may differ. Where two headings read alike, the source gives them in different places.

How the values were obtained:
[1] = test system: L-type voltage-gated Ca2+ channels; conditions: cited from earlier work
murine cancer models = conditions: cited from earlier work; for Tumor growth, preventive protocol: before tumor establishment
[2] = mouse, in vivo; cited from earlier work
E.G7-OVA thymic lymphoma = experiment: Therapeutic treatment of established E.G7-OVA tumors, intratumoral injection; type: in vivo, mouse; conditions: WT mice, established EG7 tumors, i.t. 70 nmoles every two days, five injections; vs eNPs or vehicle
Protocol: Tumor Models and Treatments: WT and Tmem176b^−/− C57BL/6 mice were injected s.c with 0.5×10^6 E.G7-OVA thymic lymphoma cells. At the indicated experiment, injection was performed alternating one Tmem176b and one Tmem176b^−/− mouse until completing both groups. In treated animals, alternation was done between (+)-BayK8644- and vehicle-treated animals or NP-BayK8644 and eNP-treated animals. Tumor growth was caliper measured manually every 2-3 days, and the two major diameters were taken. 70 nmoles of free (+)-BayK8644 or (+)-BayK8644 encapsulated in chitosan nanoparticles, or the same amount of empty NPs injections were repeated at the +2, +4, +6, +8 days after the first injection. Mice were sacrificed when one of the major tumor diameters reached 2 cm.
WT and Tmem176b^−/− animals were inoculated with EG7 tumors. Once tumors reached 25 mm^2, animals were i.t. injected with 70×10^−9 moles of (+)-BayK8644, NP-PEG-BayK8644 or eNP-PEG. Treatments were repeated every two days reaching a total of five injections. Mice were euthanized when the longer diameter reached tumors reached […].

CD11c+ splenic DCs = experiment: Antigen cross-presentation assay in mouse splenic dendritic cells (B3Z T cell activation, β-galactosidase readout); type: cell-based
Protocol: Antigen cross-presentation assays in mouse splenic dendritic cells: To obtain splenic DCs, spleen of C57BL/6 mice was extracted, cut into small pieces and treated with collagenase-D (Roche, Merck). After 30 minutes of incubation at 37° C., the enzymatic reaction was stopped with a 10 mM EDTA solution. Lysis of red blood cells was performed with an ammonium chloride solution. Finally, cells were washed with PBS/SFB1%. […] Briefly, splenic cells were labeled with anti-CD11c antibodies conjugated to the beads. The cells were allowed to pass through a magnetic column subjected to a magnetic field. Thereby, CD11c^+ cells were retained on the column. […]
CD11c^+ spleen cells were incubated with 3 mg/mL of soluble OVA, or OVA plus 20 μM of free (+)-BayK8644, 20 μM of (+)-BayK8644 encapsulated into chitosan nanoparticles (NP-BayK8644) or empty counterpart (eNP) for 4 hours in supplemented-RPMI medium. […] The activation of B3Z cell line was measured detecting β-galactosidase activity by optical density (absorbance at 595-655 nm) using chlorophenol red-β-D-galactopyranoside (CPRG; Roche) as substrate for the reaction.
(+)-BayK8644 inhibits antigen cross-presentation by splenic DCs in vitro: We first studied whether (+)-BayK8644 inhibits antigen cross-presentation in vitro. […] B3Z T cell activation was measured by assessing β-galactosidase activity in a colorimetric assay. […]

SMILES	Effect on L-type Ca++ channels [1]	Tumor growth, preventive protocol (murine cancer models)	Tumor growth, preventive protocol (murine cancer models; listed as BayK8644)	Caspase-1 activation in the TDLN (murine cancer models; i.p)	Tumor growth, therapeutic protocol (murine cancer models; mice bearing established tumors)	Toxicities in mice [2]	Mouse survival (E.G7-OVA thymic lymphoma)	Tumor growth (E.G7-OVA thymic lymphoma)	B3Z T cell activation by DCs loaded with OVA protein (cross-presentation) (CD11c+ splenic DCs; 3 mg/ml soluble OVA 4 hours, 10 μM or 20 μM)	B3Z T cell activation by DCs loaded with OVA peptide SIINFEKL (CD11c+ splenic DCs; SIINFEKL 45 minutes, 20 μM)
COC(=O)C1=C(C)NC(C)=C([N+](=O)[O-])C1c1ccccc1C(F)(F)F (single isomer, unassigned; (+)) [(+)-BayK8644]	inhibitor	controlled tumor growth; also recorded: controlled its growth	controlled tumor growth	increased Caspase-1 activation	failed to do so	not associated with toxicities	failed	failed to control tumor growth	significantly decreased their capacity to activate B3Z cells	did not inhibit activation of B3Z cells
COC(=O)C1=C(C)NC(C)=C([N+](=O)[O-])C1c1ccccc1C(F)(F)F (single isomer, unassigned; (-)) [(−)-BayK8644]	agonists									
